Assay results taken from article PMC11596392, “Enhanced Antibacterial, Anti-Inflammatory, and Antibiofilm Activities of Tryptophan-Substituted Peptides Derived from Cecropin A-Melittin Hybrid Peptide BP100” (Molecules, 2024).
Where no end group is shown, it is not given here.

Tests used:
[1] = test system: S. aureus (KCTC 1621); assay type: cell-based, Staphylococcus aureus; conditions: broth microdilution in MHB, 37 °C, 24 h, 100% inhibition of growth
Procedure: (§1) The antibacterial efficacy of the synthesized peptides was evaluated by determining the minimal inhibitory concentrations (MICs) against six standard bacterial strains and five drug-resistant bacterial strains using the Clinical and Laboratory Standards Institute (CLSI) microdilution method. Melittin served as the positive control.
(§2) The minimal inhibitory concentrations (MICs) of the peptides against bacterial strains were determined using a modified broth-microdilution method in accordance with the National Committee for Clinical Laboratory Standards (NCCLS) guidelines. Overnight cultures were diluted in cation-adjusted Mueller–Hinton Broth (MHB) to achieve an inoculum density of 2 × 10^6 CFU/mL. A two-fold serial dilution of the peptide solution (100 μL) was introduced into microtiter plates, followed by the addition of 100 μL of bacterial suspension. The plates were then incubated at 37 °C for 24 h to determine the MICs. Wells containing only culture media served as negative controls, while those with added bacteria functioned as positive controls. The MIC, expressed in μM, was defined as the lowest peptide concentration that prevented visible bacterial growth. This protocol was also employed to determine MICs in the presence of physiological salts (150 mM of NaCl, 4.5 mM of KCl, 6 μM of NH4Cl, 1 mM of MgCl2, 2.5 mM of CaCl2, and 4 μM of FeCl3) and 20% human serum to assess the peptides’ efficacy under conditions more closely resembling physiological environments. All experiments were conducted in triplicate and repeated three times independently to ensure reproducibility and statistical significance of the results.

[2] = test system: S. epidermidis (KCTC 1917); assay type: cell-based, Staphylococcus epidermidis; conditions: broth microdilution in MHB, 37 °C, 24 h, 100% inhibition of growth
Procedure: as §1, §2

[3] = test system: B. subtilis (KCTC 3068); assay type: cell-based, Bacillus subtilis; conditions: broth microdilution in MHB, 37 °C, 24 h, 100% inhibition of growth
Procedure: as §1, §2

[4] = test system: MRSA (CCARM 3089); assay type: cell-based, methicillin-resistant Staphylococcus aureus; conditions: broth microdilution in MHB, 37 °C, 24 h, 100% inhibition of growth
Procedure: as §1, §2

[5] = test system: MRSA (CCARM 3090); assay type: cell-based, methicillin-resistant Staphylococcus aureus; conditions: broth microdilution in MHB, 37 °C, 24 h, 100% inhibition of growth
Procedure: as §1, §2

[6] = test system: VREF (ATCC 51559); assay type: cell-based, vancomycin-resistant Enterococcus faecium; conditions: broth microdilution in MHB, 37 °C, 24 h, 100% inhibition of growth
Procedure: as §1, §2

[7] = test system: E. coli (KCTC 1682); assay type: cell-based, Escherichia coli; conditions: broth microdilution in MHB, 37 °C, 24 h, 100% inhibition of growth
Procedure: as §1, §2

[8] = test system: P. aeruginosa (KCTC 1637); assay type: cell-based, Pseudomonas aeruginosa; conditions: broth microdilution in MHB, 37 °C, 24 h, 100% inhibition of growth
Procedure: as §1, §2

[9] = test system: S. typhimurium (KCTC 1926); assay type: cell-based, Salmonella typhimurium; conditions: broth microdilution in MHB, 37 °C, 24 h, 100% inhibition of growth
Procedure: as §1, §2

[10] = test system: MDRPA (CCARM 2095); assay type: cell-based, multidrug-resistant Pseudomonas aeruginosa; conditions: broth microdilution in MHB, 37 °C, 24 h, 100% inhibition of growth
Procedure: as §1, §2

[11] = test system: MDRPA (CCARM 2109); assay type: cell-based, multidrug-resistant Pseudomonas aeruginosa; conditions: broth microdilution in MHB, 37 °C, 24 h, 100% inhibition of growth
Procedure: as §1, §2

[12] = test system: sheep red blood cells (sRBCs); experiment: Hemolytic activity assay; assay type: cell-based; conditions: 4% (v/v) sheep red blood cells in PBS, 1 h, 37 °C; 1 to 256 μM tested
Procedure: To assess toxicity in mammalian cells, we evaluated the hemolytic activity of the peptides on sheep red blood cells (sRBCs). […] The therapeutic index (TI), a measure commonly employed to evaluate the cell selectivity of antibacterial agents, was calculated as the ratio of the concentration causing 10% hemolysis of sRBCs (HC10) to the GM [19, 20, 21, 22].
The hemolytic activity of the peptides was tested through hemolysis assay of sheep red blood cells (sRBCs). The sRBCs were diluted in PBS to achieve a 4% (v/v) concentration. Subsequently, 100 μL of peptide solutions, ranging from 1 to 256 μM, was dispensed into a 96-well plate containing an equal volume of the erythrocyte suspension. After incubating for 1 h at 37 °C and centrifuging at 1000× g for 10 min, 100 μL of the supernatant was transferred to a new 96-well plate. Hemoglobin release was quantified using a microplate reader at a wavelength of […]. The percentage of hemolysis was calculated using percentage hemolysis = 100 × [[…]], where A represents the absorbance of the peptide-treated sample at 540 nm, A0 corresponds to the absorbance value representing 0% hemolysis in PBS, and At corresponds to the absorbance value representing 100% hemolysis in 0.1% Triton X-100.

[13] = test system: MDRPA (CCARM 2095) biofilm formation; assay type: cell-based, multidrug-resistant Pseudomonas aeruginosa; conditions: overnight 37 °C, crystal violet staining; for MBIC50: 50% inhibition; for MBIC90: 90% inhibition
Description: Bacterial biofilms, comprising communities of bacterial cells encased in a matrix of polysaccharides and nucleic acids, present a significant challenge for conventional antibiotics due to the protective nature of this matrix. Biofilms can enhance bacterial resistance to antibiotics by up to 1000-fold compared to planktonic bacteria. To address this issue, there is an urgent need to discover and develop novel alternative therapeutic agents capable of effectively combating biofilm-forming bacteria. […] Our research specifically focused on evaluating the impact of BP100 and its analogs on biofilm formation and eradication using multidrug-resistant Pseudomonas aeruginosa (MDRPA), a common pathogen responsible for biofilm-mediated nosocomial infections. The adhered biomass was quantified using crystal violet staining, and the minimum biofilm inhibitory concentration (MBIC90) was determined as the lowest concentration required to inhibit 90% of biofilm growth relative to the positive control. […] Human cathelicidin LL-37 is well-documented for its potent antibiofilm properties.
The inhibitory activity of the peptides on biofilm formation was evaluated against multidrug-resistant Pseudomonas aeruginosa (MDRPA) (CCARM 2095) using a biofilm inhibition assay to determine the minimal biofilm inhibitory concentration (MBIC). Peptide solutions were serially diluted in sterile water and aliquoted (100 μL) into a 96-well Costar polypropylene plate (Corning Inc., Corning, NY, USA). An equal volume of MDRPA suspension in Mueller–Hinton Broth (MHB), adjusted to 1 × 10^6 CFU/mL, was added to each well, resulting in a final inoculum density of 5 × 10^5 CFU/mL. Following overnight incubation at 37 °C, bacterial growth was quantified by measuring the optical density (OD) at 595 nm. Planktonic cells were then discarded, and the attached biofilms were washed thrice with distilled water. Residual biofilms were stained with 0.1% crystal violet for five minutes, washed to remove non-adherent dye, and subsequently destained using 95% ethanol. The OD at 595 nm was measured again to assess the biofilm mass. Control wells contained untreated bacteria. The MBIC was defined as the lowest peptide concentration that inhibited any residual crystal violet staining or biofilm formation. All assays were conducted in triplicate to ensure reproducibility. This method allows for the quantitative assessment of the peptides’ ability to prevent biofilm formation, a critical virulence factor in many bacterial infections, particularly those caused by multidrug-resistant strains.

Substance	Minimal Inhibitory Concentration (MIC) [1]	Minimal Inhibitory Concentration (MIC) [2]	Minimal Inhibitory Concentration (MIC) [3]	Minimal Inhibitory Concentration (MIC) [4]	Minimal Inhibitory Concentration (MIC) [5]	Minimal Inhibitory Concentration (MIC) [6]	Minimal Inhibitory Concentration (MIC) [7]	Minimal Inhibitory Concentration (MIC) [8]	Minimal Inhibitory Concentration (MIC) [9]	Minimal Inhibitory Concentration (MIC) [10]	Minimal Inhibitory Concentration (MIC) [11]	HC10 (peptide concentration that caused 10% hemolysis) [12]	MBIC50 [13]	MBIC90 [13]
KKLFKKIWKWL-NH2 [BP11]	4 µM	4 µM	8 µM	8 µM	32 µM	16 µM	8 µM	8 µM	2 µM	8 µM	16 µM	>256 µM	4 to 8 µM	8 µM
KKLFKKWLKYW-NH2 [BP10]	8 µM	8 µM	16 µM	64 µM	64 µM	128 µM	8 µM	8 µM	8 µM	16 µM	16 µM	>256 µM	16 to 32 µM	32 µM
KKLFKKWWKWL-NH2 [BP16]	16 µM	16 µM	16 µM	16 µM	128 µM	64 µM	16 µM	8 µM	16 µM	32 µM	32 µM	>256 µM	8 to 16 µM	16 µM
KKLFKKWWKYL-NH2 [BP9]	8 µM	4 µM	16 µM	64 µM	64 µM	64 µM	4 µM	16 µM	4 µM	16 µM	16 µM	>256 µM	8 to 16 µM	16 µM
